Reference: PMC7343282, “Tissue Distribution of Several Series of Cationic Surfactants in Rainbow Trout (Oncorhynchus mykiss) Following Exposure via Water” (Environmental Science & Technology, 2020)

Key:
[1] = tested on: rainbow trout (Oncorhynchus mykiss); test: Tissue concentrations in rainbow trout after 7 d exposure via water (two mixtures); assay type: in vivo; details: rainbow trout (Oncorhynchus mykiss), in vivo, 7 d; for Concentration in blood / Concentration in muscle / Concentration in skin, per surface area: pH 7.5
Method: The study was conducted with rainbow trout (Oncorhynchus mykiss) weighing between 98 and 165 g. The fish were purchased from Nordic trout Sweden AB and held in the aquaria facility prior to the experiment in February 2018. Ethical approval for the experiments was obtained from Stockholms djurförsöksetiska nämnd (decision 9967-2017). The experiments were conducted in 300 L fiberglass aquaria with a water renewal rate of 1.3 L min^–1 (MIX 1) and 1.45 L min^–1 (MIX 2). The water temperature was 10 °C and the pH 7.5. The water hardness was estimated to be 1.1 mM Ca^2+ based on information from the water supplier. The aquaria water was circulated through a filter of polyester wool at 800–1200 L h^–1 with an Eheim 2273 Pro 4+ pump. The outflow from the filter pump was placed above the water surface, providing for aeration. The lighting was dim and programmed on a 12 h light/12 h dark cycle. The fish were fed fish food pellets supplied by the fish farm at 1.0% of their body weight per day.
A solution of the test chemical mixture in methanol was infused continuously (3.5 and 3.8 μL min^–1 for MIX 1 and MIX 2, respectively) into the water inflow using a syringe pump. The intended concentrations of the chemicals in water ranged from 2.5 to 50 μg L^–1 (Table 1). They were selected with the help of modeled estimates of the BCF that were based on reported and extrapolated membrane water partition coefficients[7] and biotransformation rate constants predicted with quantitative structure activity relationships (QSARs)[24],[25] to parameterize the BIONIC model.[26] Based on these estimates, we selected an exposure concentration which would result in concentrations in fish that were clearly above the limit of quantification (LOQ) of the analytical method, while trying to keep the quantifiable exposure concentration as low as possible to minimize the risk of toxic effects and micelle formation (see comparison of intended concentrations with available toxicological data in Table S4).
The surface of the fish posterior of the gills was rinsed with 100% methanol to remove test chemical residues adsorbed to the outer surface of the skin and absorbed in the skin mucus. […] The fish were dissected and the liver, the kidney, the gills, and the remaining contents of the abdominal cavity were taken and weighed. Skin and muscle samples were prepared from the upper dorsal region on semi-frozen fish after the methanol rinse had removed the mucus. The main part of the subcutaneous fat tissue was included in the muscle samples rather than in the skin samples. All samples were stored frozen at −20 °C until further analysis.
For 6 fish from each aquarium and 3 control fish, samples of muscle, skin, liver, and gills were homogenized in a bullet blender (muscle and liver) (MiniG, SPEXsamplePrep) or in a cryo-mill (skin and gill) (Mixer mill cryomill, Retsch GmbH). A sub-sample of 0.5–1.2 g of the homogenate was extracted twice in methanol (4 mL, 50 °C, ultra-sound, 60 min), employing centrifugation at 4000 rpm for phase separation. Further information on the extraction efficiency of this method can be found in the Supporting Information (Table S5 and accompanying text). Isotope labeled standards of Q10 (D21), Q14 (D29), and P16 (D33) were added to a portion of the extract corresponding to 12–75 mg of the sample. The extract volume was adjusted to 3 mL with methanol and then cleaned up on a weak cationic exchange SPE column (WCX, 60 mg, 30 μm particle size, waters). Solvent elution was performed by gravity flow. The column was conditioned with 2 mL of methanol, followed by 2 mL of Milli-Q water adjusted to pH 7 with ammonium hydroxide to activate the ion exchange. The sample extract was loaded onto the column, and it was subsequently rinsed with 20 mL of methanol.

[2] = tested on: rainbow trout (Oncorhynchus mykiss); test: Surface area-normalized mucus-water and gill-water distribution coefficients; details: for Gill-water distribution coefficient (DG-W): from average concentrations in gills and water, calculated gill surface; for Mucus-water distribution coefficient (DMuc-W): from average concentrations in mucus and water
Method: For each mixture, the syringe pump was started in an aquarium containing no fish. After 16 h, to allow the concentrations to stabilize, 12 rainbow trout were added. After 7 d of exposure, the fish in the exposure aquaria as well as several unexposed (control) fish were sacrificed. Following stunning, blood was collected with a heparinized syringe from the caudal vein into a 2 mL Eppendorf tube. The fish were weighed and photographed, and the length was measured. The outer surface area of the fish was estimated from the fish weight according to O’Shea et al.[27] [drawing 1] 1
The gill surface area was estimated from the fish weight according to the equation specific for O. mykiss from a report by Hughes,[28] taken from ref ([29]) [drawing 2] 2
Because the mass of extracted mucus was not determined, the concentrations in mucus were normalized to the estimated fish’s total surface area (eq 1) excluding the head, which was not rinsed.
Surface area-normalized gill–water distribution coefficients (DG–W) were calculated from the average concentrations measured in gills and water, and a calculated gill surface based on rainbow trout specific scaling factors (eq 2). […] Unlike the skin, the gills were not rinsed with methanol, so the gill samples included gill mucus.

[3] = tested on: rainbow trout (Oncorhynchus mykiss); test: Apparent bioconcentration factor at end of 7-day exposure; assay type: in vivo
Method: Apparent BCFs (BCFapp) at the end of the 7-day exposure were calculated by dividing the surfactant body burden (including mucus) by the fish mass, and dividing this by the average measured concentration in water samples taken during the exposure phase. The BCFapp values ranged from 0.1 to 1260 (Table S18). Given the short exposure period, it is possible that the fish in this study had not approached steady state, in particular with respect to the distribution between water and internal tissues and between water and skin, and that the steady-state BCFs are higher. […] We note that some improvements in the methodology would be helpful, particularly with respect to the stability of the aqueous exposure concentration of the longest chain surfactants. Working with mixtures of analogue cationic surfactants allowed for consistent evaluation of differences in accumulation trends due to structural features.

[4] = ref Timmer and Droge (2017); cited from earlier work

## CCCCCCCCCN [P9, Nonylamine]
[1]
  Concentration in gills: 1200 (12) ng g^–1
  Concentration in liver: 1710 (40) ng g^–1
  Concentration in skin: 132 (36) ng g^–1
  Concentration in blood: 46 (29) ng g^–1
  Concentration in muscle: 27 (39) ng g^–1
  Concentration in skin, per surface area: 11.6 ng cm-2
[2]
  Gill-water distribution coefficient (DG-W): 0.44 mLcm-2
  Mucus-water distribution coefficient (DMuc-W): 0.47 mL cm-2
[3]; end of 7-day exposure, body burden including mucus
  Apparent bioconcentration factor (BCFapp): 3.3 L kg-1 wet weight
[4]
  Log KMW,C (membrane-water partition coefficient of the charged form): 3.72

## CCCCCCCCCCCCN [P12, Dodecylamine]
[1]
  Concentration in gills: 20 000 (10) ng g^–1
  Concentration in liver: 42 000 (15) ng g^–1
  Concentration in skin: 3900 (25) ng g^–1
  Concentration in blood: 770 (26) ng g^–1
  Concentration in muscle: 630 (28) ng g^–1
  Concentration in skin, per surface area: 310 ng cm-2
[2]
  Gill-water distribution coefficient (DG-W): 28 mLcm-2
  Mucus-water distribution coefficient (DMuc-W): 16.3 mL cm-2
[3]; rainbow trout (Oncorhynchus mykiss), in vivo, 7 d, pH 7.5
  Apparent bioconcentration factor (BCFapp): 230 L kg-1 wet weight
[4]
  Log KMW,C (membrane-water partition coefficient of the charged form): 5.58
